Drawing on PubChem BioAssay (NCI), this text covers GI50 and TGI for 25 compounds.

Common to all, as to assay: NCI-60 cell line screen, 48 h
Assay [1] relates to U251 CNS.
For assay [2], the system named is MDA-MB-231 breast.
Assay [3] has as its system SK-MEL-2 melanoma.
Assay [4] concerns HOP-62 NSCLC.
Assay [5] relates to HCT-15 colon.
In assay [6] the test system is SN12C renal.
Assay [7] deals with CCRF-CEM leukemia.

SMILES strings stand for the structures. Values joined by “and” are separate entries in the source; they are usually repeats but may differ in a detail not shown here. Equal entries are not always repeated.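 Dose response: 5 concentrations. Exposure: 48 h. Format: 96-well plates. Endpoint: linear interpolation; highest concentration if not reached. GI50 = concentration required for 50% inhibition of growth. TGI: concentration producing complete growth inhibition.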

In the case of `COc1cc[nH]c1/C=C1\C(=O)Nc2ccc(F)c(I)c21`, the GI50 in assay [1], in assay [2], in assay [3], in assay [4], in assay [5] and in assay [6] was over 25 µM each time. The GI50 in assay [7] was over 25 µM. Also, the TGI in assay [1], in assay [2], in assay [3], in assay [4], in assay [5] and in assay [6] was over 25 µM each time. The TGI in assay [7] was over 25 µM.
With `O=C1C(Cl)=C(Nc2cccc(O)c2)C(=O)N1c1cc(Cl)c(Cl)cc1Cl`, the GI50 is 13.7 µM in assay [1]; 12.7 µM in assay [2]; 15 µM in assay [3]; 21.3 µM in assay [4]; 15.1 µM in assay [5]; 15.6 µM in assay [6]. In addition, the GI50 in assay [7] is 0.45 µM. The TGI in assay [1] was 27.3 µM; in assay [2], 29.5 µM; in assay [3], 29.6 µM; in assay [4], 36.9 µM; in assay [5] it was 30.1 µM; in assay [6], 29.4 µM. The same compound yielded a TGI in assay [7] of over 100 µM.
Consider `COc1ccc(-c2cncn2-c2ccc(OC)cc2)cc1`, for which the GI50 in assay [1] is 25.3 µM; in assay [2], 21.3 µM; in assay [3], 17.9 µM; in assay [4] it was 22.8 µM; in assay [5], 19.6 µM; in assay [6], 18.1 µM. In addition, the TGI in assay [1] was over 100 µM; in assay [2] it was 71 µM; in assay [3] it was 42.9 µM; in assay [4] it was 67.4 µM; in assay [5] it was over 100 µM; in assay [6], 48.3 µM.
With `Cc1ccc(C(O)c2cnc(C)n2Cc2ccccc2)cc1` (stereo not drawn), the TGI in assay [1], in assay [2], in assay [3], in assay [4], in assay [5] and in assay [6] was over 100 µM each time.
With `C[C@@H]1CN(CC(=O)N2CC(C)(C)c3nc(CO)c(Cc4ccc(F)cc4)cc32)[C@@H](CN2CCOC[C@H]2C)CN1`, the GI50 is 68.5 µM in assay [1]; 2.02 µM in assay [2]; 5.01 µM in assay [3]; over 100 µM in assay [4]; 31.4 µM in assay [5]; 78.2 µM in assay [6]. Besides, the GI50 in assay [7] is 31.3 µM. For the same compound, the TGI in assay [1] is over 100 µM; in assay [2] it was 21.8 µM; in assay [3], 63.9 µM; in assay [4] it was over 100 µM; in assay [5], over 100 µM; in assay [6], over 100 µM. For the same compound, the TGI in assay [7] was over 100 µM.
Turning to `C=C1C(=O)O[C@H]2[C@H]1CC/C(COC(=O)N1CCC[C@H]1C(=O)Nc1ccc(OC)c(C(N)=O)c1O)=C\CC[C@@]1(C)O[C@@H]21`, the GI50 is 6.76 µM in assay [1]; 2.68 µM in assay [2]; 6.58 µM in assay [3]; 12.8 µM in assay [4]; 4.34 µM in assay [5]; 2.96 µM in assay [6]. Besides, the GI50 in assay [7] was 1.65 µM. The TGI in assay [1] amounted to 20.9 µM; in assay [2] it was 10.1 µM; in assay [3], 34.4 µM; in assay [4] it was 30.2 µM; in assay [5] it was 17.2 µM; in assay [6], 10.3 µM. In addition, the TGI in assay [7] amounted to 5.95 µM.
For the compound `CCN(Cc1ccccc1OC)c1ccc(CO)c(Cl)c1`, the GI50 was 1.38 µM in assay [1]; 11.1 µM in assay [2]; 2.11 µM in assay [3]; 3.16 µM in assay [4]; 7.11 µM in assay [5]; 11.1 µM in assay [6]. Moreover, in assay [7], the GI50 is 19 µM. In addition, the TGI came out at 14.8 µM in assay [1]; 24.9 µM in assay [2]; 10.9 µM in assay [3]; 16.4 µM in assay [4]; 23.6 µM in assay [5]; 23.5 µM in assay [6]. Besides, the TGI in assay [7] came out at 60.3 µM.
For `CCCCN(Cc1ccc(F)cc1)c1ccc(CO)c(Cl)c1`, the GI50 was 4.57 µM in assay [1]; 14.8 µM in assay [2]; 14.5 µM in assay [3]; 11.1 µM in assay [4]; 13.4 µM in assay [5]; 12.5 µM in assay [6]. Also, the GI50 in assay [7] was 15.8 µM. Further, the TGI in assay [1] turned out to be 18.9 µM; in assay [2], 29 µM; in assay [3], 29.9 µM; in assay [4], 23.4 µM; in assay [5] it was 28.5 µM; in assay [6] it was 25.3 µM. For the same compound, the TGI in assay [7] turned out to be 38.1 µM.
Consider `CC(=O)[O-].CC(=O)[O-].[NH2-].[Pt+2].c1ccc2cnccc2c1`, for which the GI50 in assay [1] was 6.26 µM; in assay [2] it was 27.3 µM; in assay [3], 36 µM; in assay [4] it was 74.5 µM; in assay [5] it was 16.9 µM; in assay [6] it was 28.6 µM. Further, the GI50 in assay [7] was 14.1 µM. Also, the TGI is 20.3 µM in assay [1]; over 100 µM in assay [2]; over 100 µM in assay [3]; over 100 µM in assay [4]; 45.8 µM in assay [5]; over 100 µM in assay [6]. This compound yielded a TGI in assay [7] of over 100 µM.
As for `OCc1ccc(-c2nn(Cc3ccccc3)c3ccccc23)o1`, the GI50 in assay [1] was 8.07 µM and 12.4 µM; in assay [2] it was 19.6 µM and 22.2 µM; in assay [3], 16.6 µM and 30.7 µM; in assay [4], 15.8 µM and 2.86 µM; in assay [5], 17.4 µM and 20.1 µM; in assay [6], 15.9 µM and 15.1 µM. Besides, the GI50 in assay [7] was 24.3 µM and 25.5 µM. Moreover, the TGI in assay [1] is 28.5 µM and > 47.6 µM; in assay [2], 60.3 µM and 55.2 µM; in assay [3], 32.6 µM and > 100 µM; in assay [4], 53.8 µM and 30.2 µM; in assay [5], 49.2 µM and 41.4 µM; in assay [6], 35.5 µM and 33.7 µM. In assay [7], the TGI is over 95.9 µM.
Take `CC(=O)O[C@@H]1CC2C(C)(C)CCCC2(C)C2=C1C(=O)C(C(C)C)=CC2=O` (stereo partly drawn): the GI50 in assay [1] was 2.35 µM; in assay [2], 0.657 µM; in assay [3], 0.95 µM; in assay [4], 1.77 µM; in assay [5], 0.536 µM; in assay [6] it was 1.28 µM. Besides, the GI50 in assay [7] is 2.79 µM. For the same compound, the TGI is over 100 µM in assay [1]; 3.13 µM in assay [2]; 3.53 µM in assay [3]; 4.13 µM in assay [4]; 2.49 µM in assay [5]; 4.89 µM in assay [6]. This compound yielded a TGI in assay [7] of over 100 µM.
As for `C[C@@H]1COCCN1c1cc(C2(S(C)(=N)=O)CC2)nc(-c2ccnc3[nH]ccc23)n1` (stereo partly drawn), the GI50 was 5.46 µM in assay [1]; 3.92 µM in assay [2]; 4.59 µM in assay [3]; 2.94 µM in assay [4]; 3.98 µM in assay [5]; 4.77 µM in assay [6]. In addition, the GI50 in assay [7] was 1.55 µM. The TGI was 63.9 µM in assay [1]; 74.7 µM in assay [2]; 18.9 µM in assay [3]; 36.1 µM in assay [4]; over 100 µM in assay [5]; 89.6 µM in assay [6]. In assay [7], the TGI is over 100 µM.
As for `O=NNc1nc(-c2cccnc2)nc2ccccc12`, the TGI in assay [1], in assay [2], in assay [4], in assay [5], in assay [6] and in assay [7] was over 100 µM each time.
In the case of `CN(C)CCOc1ccc2c(c1)C/C(=C/c1ncc([N+](=O)[O-])n1C)C2=O`, the TGI is 20.5 µM in assay [1]; 8.42 µM in assay [2]; 3.58 µM in assay [3]; 11.4 µM in assay [4]; 3.92 µM in assay [5]; 9.78 µM in assay [6]. This compound came in with a TGI in assay [7] of 15.1 µM.
With `CCc1cc(O)c(Cl)c(C)c1Cl`, the TGI is 38.1 µM in assay [1]; 81.1 µM in assay [2]; over 100 µM in assay [3]; 33.2 µM in assay [4]; 34.6 µM in assay [5]; 29.5 µM in assay [6]. In assay [7], this compound came in with a TGI of 50.1 µM.
On to `Cc1nc2sc(C(=O)Nc3ccccc3)c(N)c2cc1C(=O)/C=C/c1ccccc1`, for which the GI50 was 1.71 µM in assay [1]; 3.41 µM in assay [2]; 3.37 µM in assay [3]; 2.15 µM in assay [4]; 1.57 µM in assay [5]; 2.02 µM in assay [6]. For the same compound, the GI50 in assay [7] is 2.22 µM. Also, the TGI was 3.16 µM in assay [1]; 11.3 µM in assay [2]; 14.6 µM in assay [3]; 5.13 µM in assay [4]; 3.63 µM in assay [5]; 4.45 µM in assay [6]. Besides, the TGI in assay [7] is over 100 µM.
For the compound `COc1ccc2c3c(c(=O)n(C)c2c1OC)C=CC(C)(C)O3`, the TGI in assay [1] is over 100 µM; in assay [2] it was 54 µM; in assay [3], over 100 µM; in assay [4], over 100 µM; in assay [5], 27.9 µM; in assay [6] it was 54.8 µM. This compound had a TGI in assay [7] of 88.3 µM.
Consider `Nc1cc(N)c(N)cc1N`, for which the GI50 in assay [1] is 1.82 µM; in assay [2], 5.02 µM; in assay [4] it was 1.76 µM; in assay [5] it was 2.01 µM; in assay [6] it was 1.6 µM; in assay [7], 3.43 µM. Moreover, the TGI came to 3.75 µM in assay [1]; 29.4 µM in assay [2]; 3.35 µM in assay [4]; 4.68 µM in assay [5]; 3.08 µM in assay [6]; 27.5 µM in assay [7].
For `CN(CCOc1ccc(C#N)cc1)CCOc1ccc(C#N)cc1`, the GI50 in assay [1] is 81.4 µM; in assay [2], over 100 µM; in assay [4], over 100 µM; in assay [5], 25.4 µM; in assay [6], over 100 µM. Moreover, the TGI in assay [1], in assay [2], in assay [4], in assay [5] and in assay [6] was over 100 µM each time.
For the compound `c1cnc2[nH]cc(-c3csc(-c4cn(CCCCN5CCOCC5)c5ccccc45)n3)c2c1`, the GI50 was 1.58 µM in assay [2]; 1.94 µM in assay [3]; 1.7 µM in assay [4]; 1.81 µM in assay [5]; 2.98 µM in assay [6]; 1.98 µM in assay [7]. Also, the TGI in assay [2] was 3.27 µM; in assay [3], 3.87 µM; in assay [4], 3.7 µM; in assay [5], 3.51 µM; in assay [6], 10.8 µM; in assay [7], 4.03 µM.
As for `CCOP(=O)(OCC)C(NC(c1ccccc1)c1ccccc1)c1cccc2ccccc12` (stereo not drawn), the GI50 was 1.56 µM in assay [2]; 27.7 µM in assay [3]; 1.51 µM in assay [5]; 2.68 µM in assay [6]; 5.86 µM in assay [7]. The TGI was 9.63 µM in assay [2]; over 100 µM in assay [3]; 8.78 µM in assay [5]; 8.65 µM in assay [6]; over 100 µM in assay [7].
On to `CCCCn1cnc2c(SC)ncnc21`, for which the TGI in assay [1], in assay [2], in assay [3], in assay [4], in assay [5] and in assay [6] was over 100 µM each time.
As for `CC12CCC(=O)C=C1CCC1C2C(O)CC2(C)C(c3csc(N)n3)CCC12` (stereo not drawn), the TGI in assay [1], in assay [2], in assay [3], in assay [4], in assay [5] and in assay [6] was over 100 µM each time.
As for `Nc1nc2c(c(=O)[nH]1)CN(c1ccc(S(N)(=O)=O)cc1)CN2`, the TGI in assay [1], in assay [2], in assay [3], in assay [4], in assay [5] and in assay [6] was over 100 µM each time.
On to `CC(=O)OCC1OC(n2ccc(=O)[nH]c2=O)C(OC(C)=O)C1OC(C)=O` (stereo not drawn), for which the GI50 in assay [1], in assay [2], in assay [3], in assay [4], in assay [5] and in assay [6] was over 100 µM each time. Also, the TGI in assay [1], in assay [2], in assay [3], in assay [4], in assay [5] and in assay [6] was over 100 µM in each case.
